Results on four compounds are retold here after patent publication US6503926B2, “Chemokine receptor antagonists and methods of use therefor” (Millennium Pharmaceuticals, Inc., priority 1998, dated 2003).

In this assay the target is T1, THP-1 cell membranes (RANTES / MIP-1α binding; chemokine receptor, believed CCR1) (Homo sapiens, UniProt P32246).
T1 sequence (P32246 1-355): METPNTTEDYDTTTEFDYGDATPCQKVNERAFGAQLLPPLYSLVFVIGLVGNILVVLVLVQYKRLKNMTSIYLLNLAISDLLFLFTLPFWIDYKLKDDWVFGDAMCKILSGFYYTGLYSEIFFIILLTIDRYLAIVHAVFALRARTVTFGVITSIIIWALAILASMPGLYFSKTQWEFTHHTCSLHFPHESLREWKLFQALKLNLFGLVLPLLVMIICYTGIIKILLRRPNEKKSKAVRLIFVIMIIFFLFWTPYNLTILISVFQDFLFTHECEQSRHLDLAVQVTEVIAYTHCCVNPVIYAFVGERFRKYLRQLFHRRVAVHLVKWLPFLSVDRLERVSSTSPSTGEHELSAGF
The assay is described as follows: Receptor binding assay, 125I-RANTES or 125I-MIP-1α binding to THP-1 cell membranes. The conditions noted are these: 125I-RANTES or 125I-MIP-1α as ligand, 60 min at room temperature, read-out: IC50 (inhibitor concentration required for 50% inhibition of specific binding). The procedure: Membranes were prepared from THP-1 cells (ATCC #TIB202). Cells were harvested by centrifugation, washed twice with PBS (phosphate-buffered saline), and the cell pellets were frozen at -70 to -85° C. The frozen pellet was thawed in ice-cold lysis buffer consisting of 5 mM HEPES (N-2-hydroxyethylpiperazine-N'-2-ethane-sulfonic acid) pH 7.5, 2 mM EDTA (ethylenediaminetetraacetic acid), 5 μg/ml each aprotinin, leupeptin, and chymostatin (protease inhibitors), and 100 μg/ml PMSF (phenyl methane sulfonyl fluoride-also a protease inhibitor), at a concentration of 1 to 5×10^7 cells/ml. This procedure results in cell lysis. The suspension was mixed well to resuspend all of the frozen cell pellet. Nuclei and cell debris were removed by centrifugation of 400×g for 10 minutes at 4° C. The supernatant was transferred to a fresh tube and the membrane fragments were collected by centrifugation at 25,000×g for 30 minutes at 4° C. The supernatant was aspirated and the pellet was resuspended in freezing buffer consisting of 10 mM HEPES pH 7.5, 300 mM sucrose, 1 μg/ml each aprotinin, leupeptin, and chymostatin, and 10 μg/ml PMSF (approximately 0.1 ml per each 10^8 cells). All clumps were resolved using a minihomogenizer, and the total protein concentration was determined using a protein assay kit (Bio-Rad, Hercules, Calif., cat #500-0002). The membrane solution was then aliquoted and frozen at -70 to -85° C. until needed. Binding Assays-utilized the membranes described above. Membrane protein (2 to 20 μg total membrane protein) was incubated with 0.1 to 0.2 nM ^125I-labeled RANTES or MIP-1α with or without unlabeled competitor (RANTES or MIP-1α) or various concentrations of compounds. The binding reactions were performed in 60 to 100 μl of a binding buffer consisting of 10 mM HEPES pH 7.2, 1 mM CaCl2, 5 mM MgCl2, and 0.5% BSA (bovine serum albumin), for 60 min at room temperature. The binding reactions were terminated by harvesting the membranes by rapid filtration through glass fiber filters (GF/B or GF/C, Packard) which were presoaked in 0.3% polyethyleneimine. The filters were rinsed with approximately 600 μl of binding buffer containing 0.5 M NaCl, dried, and the amount of bound radioactivity was determined by scintillation counting in a Topcount beta-plate counter. […] Specific binding is defined as the total binding minus the non-specific binding; non-specific binding is the amount of cpm still detected in the presence of excess unlabeled Rantes or ^125MIP-1α.

Take `COc1ccc(OC)c(C(=CCCN2CCC(O)(c3ccc(Cl)cc3)CC2)c2cccnc2)c1` [Example 3, 4-(4-Chlorophenyl)-1-[4-(2,5-dimethoxyphenyl)-4-(3-pyridinyl)-3-butenyl]piperidin-4-ol]: the IC50 is under 1 µM.

`OC1(c2ccc(Cl)cc2)CCN(CCC=C(c2cccnc2)c2ccnc(Br)c2)CC1` [Example 4, 1-[4-(2-Bromo-4-pyridinyl)-4-(3-pyridinyl)-3-butenyl]-4-(4-chlorophenyl)piperidin-4-ol]: the IC50 was over 1 µM.

For the compound `COc1cccc(C(=CCCN2CCC(O)(c3ccc(Cl)cc3)CC2)c2cccnc2)c1` [Example 1, 4-(4-Chlorophenyl)-1-[4-(3-methoxyphenyl)-4-(3-pyridinyl)-3-butenyl]piperidin-4-ol], the IC50 was under 1 µM.

As for `OC1(c2ccc(Cl)cc2)CCN(CCC=C(c2ccccc2)c2cccnc2)CC1` [Example 2, 4-(4-Chlorophenyl)-1-[4-phenyl-4-(3-pyridinyl)-3-butenyl]piperidin-4-ol], the IC50 is under 1 µM.
